Assay results from PMC10495984, “Structural basis of IRGB10 oligomerization by GTP hydrolysis” (Frontiers in Immunology, 2023).

Tests used:
IRGB10 = biological target: T1, IRGB10 (Mus musculus, UniProt U5NFV2); experiment: turbidity at […] nm, SEC and native PAGE of GTP-driven oligomerization; format: biochemical; details: nucleotide-free protein, MgCl2, 37 °C, pH 8.0; hydrolysis inferred from oligomerization
T1 construct: recombinant from E. coli BL21(DE3), Ni-NTA purified, C-terminal LEH from plasmid kept; modelled residues 16-406
T1 sequence (U5NFV2 1-406): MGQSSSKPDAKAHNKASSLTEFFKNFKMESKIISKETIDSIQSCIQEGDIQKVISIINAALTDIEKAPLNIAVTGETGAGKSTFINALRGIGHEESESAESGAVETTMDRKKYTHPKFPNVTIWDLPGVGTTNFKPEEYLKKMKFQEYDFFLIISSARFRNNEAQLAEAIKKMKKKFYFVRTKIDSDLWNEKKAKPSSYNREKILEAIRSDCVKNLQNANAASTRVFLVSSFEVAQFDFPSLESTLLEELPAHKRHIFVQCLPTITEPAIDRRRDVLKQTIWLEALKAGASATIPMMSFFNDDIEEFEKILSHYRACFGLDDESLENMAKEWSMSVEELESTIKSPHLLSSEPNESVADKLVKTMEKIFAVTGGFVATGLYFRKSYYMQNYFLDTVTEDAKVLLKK

[1] = biological target: the molecule itself; experiment: SEC-MALS; GDP-bound protein (endogenous E. coli GDP kept); Superdex 200 HR 10/30, 20 mM Tris-HCl pH 8.0, 150 mM NaCl

Nc1nc2c(ncn2[C@@H]2O[C@H](COP(=O)(O)OP(=O)(O)OP(=O)(O)O)[C@@H](O)[C@H]2O)c(=O)[nH]1 [GTP]
turbidity at 350 nm, SEC and native PAGE of GTP-driven oligomerization (IRGB10): The results of these turbidity assays indicated that GTP hydrolysis caused the oligomerization of IRGB10.

B1: Immunity-related GTPase B10 (IRGB10) (enzyme, mouse)
chain: MGQSSSKPDAKAHNMASSLTEFFKNFKMESKIISKETIDSIQSCIQEGDIQKVISIINAALTDIEKAPLNIAVTGETGAGKSTFINALRGIGHEESESAESGAVETTKDRKKYTHPKFPNVTIWDLPGVGTTNFKPEEYLKKMKFQEYDFFLIISSARFRDNEAQLAEAIKKMKKKFYFVRTKIDSDLWNEKKAKPSSYNREKILEVIRSDCVKNLQNANAASTRVFLVSSFEVAQFDFPSLESTLLEELPAHKRHIFVQCLPTITEPAIDRRRDVLKQTIWLEALKAGASATIPMMSFFNDDIEEFEKILSHYRACFGLDDESLENMAKEWSMSVEELESTIKSPHLLSSEPNESVADKLVKTMEKIFAVTGGFVATGLYFRKSYYMQNYFLDTVTEDAKVLLKK
notes: IRGB10, immunity-related GTPase B10, member of the mouse IRG (p47 GTPase) family; the crystal model runs from residue 16 to residue 406 and is followed by LEH from the plasmid; nucleotide-free after a 1.5 M NaCl wash on the resin; GppNHp, GTP or GDP added afterwards; also called wildtype IRGB10; nucleotide-free IRGB10; source: E. coli BL21 (DE3), purified (Ni-NTA, SEC)
stoichiometry N [1]: 2
